Measurements from US7030067B2, “Bis(perfluoroalkanesulfonyl)imides and their salts as surfactants/additives for applications having extreme environments and methods therefor” (priority 2001, dated 2006).
Entries after “also recorded” stand apart in the source; their conditions may differ.

How the values were obtained:
[1] = Surface tension determination in water (Kruss K12 Tensiometer, Wilhelmy plate); assay type: physicochemical; conditions: for surface tension versus concentration profile, comparison in words: FIG. 1, 2, 3, 5
Description: Test Procedure I—Surface Tension Determination
(§1) All surface tensions were determined using a Kruss K12 Tensiometer. The tensiometer was integrated with an automatic dosimat and a computer, using a software package for dynamic contact angle (K121). The program was run using a Wilhelmy platinum plate (PL12) and glass sample vessel (GL7). All parts referenced above including instrument and computer are available from Kruss USA, Charlotte, N.C.

[2] = Surface tension measurements in tributyl phosphate; assay type: physicochemical; conditions: 2000 ppm in tributyl phosphate
Description: as §1
Surface tension measurements were obtained as described above with the exception that the measurments were obtained in tributyl phosphate.

[3] = Bioelimination study, fluorochemical sulfonate in male rat liver tissue; assay type: in vivo; conditions: for Amount of Sulfonate, Day 1 / Amount of Sulfonate, Day 14 / Amount of Sulfonate, Day 28: male rat liver tissue, dose 30 (C4), 10 (C6), 3 (C8) mg/kg body weight/day; for Amount of Sulfonate, Day 1: Day 1 following completion of feeding; for Amount of Sulfonate, Day 1N / Amount of Sulfonate, Day 14N / Amount of Sulfonate, Day 28N: male rat liver, normalized to a feeding level of 3 mg/kg body weight per day; for factor lower than C8F17SO3− / factor lower than C6F13SO3−: liver amount; for elimination from the body, in words: tested in the form of its potassium salt
Description: Comparative study of potassium perfluorobutanesulfonate (using a dose level of 30 mg/kg body weight/day), potassium perfluorohexanesulfonate (using a dose level of 10 mg/kg body weight/day), and potassium perfluorooctanesulfonate (using a dose level of 3 mg/kg body weight/day).

[4] = Solubility in 10/1 buffered oxide etch solution
[5] = DC conductivity of potassium salts in tributylphosphate; assay type: physicochemical; conditions: 3000 ppm in tributyl phosphate, 21.6-21.9° C.
Source text: Four tributylphosphate samples, with or without dissolved anti-erosion additives, measured for DC conductivity. The four samples were neat tributyl phosphate (control), tributyl phosphate with 3000 ppm FC-98, tributyl phosphate with 3000 ppm PBSK, and tributyl phosphate with 3000 ppm potassium bis(perfluorobutanesulfonyl)imide (DBIK).
The conductivity probe was carefully cleaned with EM Science OMNISOLV™ grade methanol, dried in a clean nitrogen stream, and allowed to equilibrate back to ambient temperature between samples.

[6] = 28 days following completion of feeding
[7] = 28 days following completion of feeding, after normalization to the same feeding levels
[8] = immediately following completion of feeding

## N.O=S(=O)(NS(=O)(=O)C(F)(F)C(F)(F)C(F)(F)C(F)(F)F)C(F)(F)C(F)(F)C(F)(F)C(F)(F)F [DBI-NH4, NH4^+−N(SO2C4F9)2]
[1]; 200 ppm
  surface tension: 48.6 dyne/cm
[1]; 450 ppm
  surface tension: 44.1 dyne/cm
[1]; 960 ppm
  surface tension: 40.1 dyne/cm
[1]; 1300 ppm
  surface tension: 38.7 dyne/cm
[1]; 1700 ppm
  surface tension: 35.9 dyne/cm
[1]; 2600 ppm
  surface tension: 31.5 dyne/cm
[1]
  surface tension versus concentration profile, comparison in words: better surfactants than NH4^+−OSO2C8F17

## O.O.O.O.O.O.O=S(=O)([O-])C(F)(F)C(F)(F)C(F)(F)C(F)(F)F.O=S(=O)([O-])C(F)(F)C(F)(F)C(F)(F)C(F)(F)F.[Mg+2] [Mg(SO3C4F9)2 · 6H2O]
[2]
  Surface Tension @ 2000 ppm: 26.93 dyne/cm

## O=S(=O)([O-])C(F)(F)C(F)(F)C(F)(F)C(F)(F)C(F)(F)C(F)(F)C(F)(F)C(F)(F)F.[K+] [Example C8F17SO3K, Potassium perfluorooctanesulfonate]
[1]; 10 ppm
  surface tension (surface energy): 67.68 dynes/cm
[1]; 100 ppm
  surface tension (surface energy): 54.09 dynes/cm
[1]; 1000 ppm
  surface tension (surface energy): 33.17 dynes/cm
[2]
  Surface Tension @ 2000 ppm: 26.96 dyne/cm
[3]
  Amount of Sulfonate, Day 1: 419 ± 86 ppm
  Amount of Sulfonate, Day 14: 309 + 34 ppm
  Amount of Sulfonate, Day 28: 237 ± 25 ppm
  Amount of Sulfonate, Day 1N: 419 ppm
  Amount of Sulfonate, Day 14N: 309 ppm
  Amount of Sulfonate, Day 28N: 237 ppm

## O=S(=O)([N-]S(=O)(=O)C(F)(F)C(F)(F)C(F)(F)C(F)(F)F)C(F)(F)C(F)(F)C(F)(F)C(F)(F)F.O=S(=O)([N-]S(=O)(=O)C(F)(F)C(F)(F)C(F)(F)C(F)(F)F)C(F)(F)C(F)(F)C(F)(F)C(F)(F)F.[Mg+2] [Mg (DBI)2, Mg^+2[^−N(SO2C4F9)2]2]
[1]; 200 ppm
  surface tension: 46.6 dyne/cm
[1]; 450 ppm
  surface tension: 40.2 dyne/cm
[1]; 960 ppm
  surface tension: 35.0 dyne/cm
[1]; 1300 ppm
  surface tension: 32.0 dyne/cm
[1]; 1700 ppm
  surface tension: 29.0 dyne/cm
[1]; 2600 ppm
  surface tension: 26.3 dyne/cm
[2]
  Surface Tension @ 2000 ppm: 27.04 dyne/cm

## N.O=S(=O)(O)C(F)(F)C(F)(F)C(F)(F)C(F)(F)C(F)(F)C(F)(F)C(F)(F)C(F)(F)F [FC-93, ammonium perfluorooctanesulfonate]
[4]; all concentrations (FIG. 4)
  solubility in buffered oxide etch: precipitated

## O=S(=O)([O-])C(F)(F)C(F)(F)C(F)(F)C(F)(F)C(F)(F)C(F)(F)F.[K+] [C6F13SO3^−, potassium perfluorohexanesulfonate]
[3]; [6]
  factor lower than C8F17SO3−: 6.5
[3]; [7]
  factor lower than C8F17SO3−: 21.5
[3]; [8]
  factor lower than C8F17SO3−: 1.3
[3]
  Amount of Sulfonate, Day 1: 327 ± 52 ppm
  Amount of Sulfonate, Day 14: 61.9 ± 11.7 ppm
  Amount of Sulfonate, Day 28: 36.3 ± 7.4 ppm
  Amount of Sulfonate, Day 1N: 98 ppm
  Amount of Sulfonate, Day 14N: 19 ppm
  Amount of Sulfonate, Day 28N: 11 ppm

## O=S(=O)([O-])C(F)(F)C(F)(F)C(F)(F)C(F)(F)F.[K+] [Example C4F9SO3K, Potassium perfluorobutanesulfonate]
[1]; 10 ppm
  surface tension (surface energy): 70 dynes/cm
[1]; 100 ppm
  surface tension (surface energy): 67.5 dynes/cm
[1]; 1000 ppm
  surface tension (surface energy): 53 dynes/cm
[1]
  surface tension versus concentration profile, comparison in words: less effective than perfluorooctanesulfonate in lowering the surface tension of water
[2]
  Surface Tension @ 2000 ppm: 27.32 dyne/cm
[5]
  Observed Conductivity: 3.5 uS/cm
[3]; [6]
  factor lower than C6F13SO3−: > 1400
[3]; [7]
  factor lower than C6F13SO3−: 4400
[3]; [8]
  factor lower than C6F13SO3−: > 100
[3]
  Amount of Sulfonate, Day 1: 3.09 ± 1.58 ppm
  Amount of Sulfonate, Day 14: 0.126 ± 0.084 ppm
  Amount of Sulfonate, Day 28: 0.025 ± 0.015 ppm
  Amount of Sulfonate, Day 1N: 0.31 ppm
  Amount of Sulfonate, Day 14N: 0.0126 ppm
  Amount of Sulfonate, Day 28N: 0.0025 ppm
[3]; listed as C4F9SO3^−
  elimination from the body, in words: unexpectedly fast and effective elimination
[3]; listed as perfluorobutanesulfonate
  elimination from the body, in words: eliminates from the body more rapidly than perfluorohexanesulfonate and much more rapidly than perfluorooctanelsulfonate

## [^−N(SO2C4F9)2]2 (+)H3NCH(CH3)CH2[OCH(CH3)CH2]a[OCH2CH2]8.5[OCH(CH3)CH2]CNH3(+) (a+c=2.5) [(DBI)2 JEFFAMINE ™ ED600]
[1]; 10 ppm
  surface tension (surface energy): 57.4 dynes/cm
[1]; 100 ppm
  surface tension (surface energy): 40.7 dynes/cm
[1]; 1000 ppm
  surface tension (surface energy): 32.7 dynes/cm
[1]
  surface tension versus concentration profile, comparison in words: significantly lower surface tensions than C4F9SO3K

## O=S(=O)([N-]S(=O)(=O)C(F)(F)C(F)(F)C(F)(F)C(F)(F)F)C(F)(F)C(F)(F)C(F)(F)C(F)(F)F.[K+] [C4F9SO2NKSO2C4F9, potassium bis(perfluorobutanesulfonyl)imide]
[1]; 10 ppm
  surface tension (surface energy): 61.85 dynes/cm
[1]; 100 ppm
  surface tension (surface energy): 41.61 dynes/cm
[1]; 1000 ppm
  surface tension (surface energy): 34.02 dynes/cm
[1]
  surface tension versus concentration profile, comparison in words: surface tensions significantly less than PBSK and comparable to potassium perfluorooctanesulfonate at equal concentrations; also recorded: the same or better surface tension in water as C8F17SO3K
[2]
  Surface Tension @ 2000 ppm: 27.34 dyne/cm
[5]
  Observed Conductivity: 13.8 uS/cm

## O=S(=O)([N-]S(=O)(=O)C(F)(F)C(F)(F)C(F)(F)C(F)(F)F)C(F)(F)C(F)(F)C(F)(F)C(F)(F)F.[Li+] [DBI-Li, Lithium bis(perfluorobutanesulfonyl)imide]
[1]; 200 ppm
  surface tension: 53.2 dyne/cm
[1]; 450 ppm
  surface tension: 48.1 dyne/cm
[1]; 960 ppm
  surface tension: 42.8 dyne/cm
[1]; 1300 ppm
  surface tension: 41.5 dyne/cm
[1]; 1700 ppm
  surface tension: 39.1 dyne/cm
[1]; 2600 ppm
  surface tension: 36.0 dyne/cm
[1]
  surface tension versus concentration profile, comparison in words: significantly lower surface tensions than the shorter chain homologues

## O=S(=O)([O-])C1(F)C(F)(F)C(F)(F)C(F)(C(F)(F)C(F)(F)F)C(F)(F)C1(F)F.[K+] (stereo not drawn) [FC-98, Potassium perfluoroethylcyclohexanesulfonate]
[2]
  Surface Tension @ 2000 ppm: 26.94 dyne/cm
[5]
  Observed Conductivity: 3.2 uS/cm

## O=S(=O)(NS(=O)(=O)C(F)(F)C(F)(F)C(F)(F)C(F)(F)F)C(F)(F)C(F)(F)C(F)(F)C(F)(F)F [bis(perfluorobutanesulfonyl)imide, HN(SO2C4F9)2]
[1]
  surface tension versus concentration profile, comparison in words: better surfactants than NH4^+−OSO2C8F17
[4]; 1000 ppm
  appearance of solution: slightly hazy to the eye

## O=S(=O)([O-])C(F)(F)C(F)(F)C(F)(F)C(F)(F)C(F)(F)C(F)(F)C(F)(F)C(F)(F)F.O=S(=O)([O-])C(F)(F)C(F)(F)C(F)(F)C(F)(F)C(F)(F)C(F)(F)C(F)(F)C(F)(F)F.[Mg+2] [Mg(C8F17SO3)2]
[2]
  Surface Tension @ 2000 ppm: 27.36 dyne/cm

## O=S(=O)([O-])C(F)(F)C(F)(F)C(F)(F)C(F)(F)C(F)(F)C(F)(F)C(F)(F)C(F)(F)F.O=S(=O)([O-])C(F)(F)C(F)(F)C(F)(F)C(F)(F)C(F)(F)C(F)(F)C(F)(F)C(F)(F)F.[Ca+2] [Ca(C8F17SO3)2]
[2]
  Surface Tension @ 2000 ppm: 26.15 dyne/cm
